Experimental data from patent US9072757B2, “Combination of an HMG-CoA reductase inhibitor and a farnesyl-pyrophosphate synthase inhibitor for the treatment of diseases related to the persistence and/or accumulation of prenylated proteins” (UNIVERSITE DE LA MEDITERRANEE AIX-MARSEILLE II, priority 2006, dated 2015).

Tests used:
prelamin A = test: Immunohistochemistry (immunomarking): level of prelamin A in healthy reference cells; type: cell-based, human; settings: Pravastatin 100 μM for 12 hours, zoledronate 20 μM for 6 hours; in combination or alone (FIG. 3)
Protocol: (§1) The cell lines are either reference fibroblasts AG16409 from the Coriell Institute, or fibroblasts from biopsies of patients suffering from Restrictive Dermopathy. They are cultivated at 37° C. in 5% CO2 in a P2 room.
(§2) A cell culture is trypsinised and the cells counted on a Neubauer cell.
(§3) Labtech-style culture wells (Nunc, ref 177399) are seeded, at the rate of 5×10^4 cells per well.
(§4) The complete culture medium is supplemented by the treatment or treatments (statin, NBP, or both), and the cells cultivated for an ad hoc time.
(§5) The cells are fixed in a paraformaldehyde 4% solution (in PBS) for 10 minutes at room temperature.
After defrosting, the cells are incubated for 5 minutes at room temperature in a humid chamber in 50 μl of a permeabilisation solution:
(§6) The primary antibody is diluted to 1/100th in 50 μl of incubation solution and put in contact with the cells for 1 hour at room temperature in a humid chamber.
Incubation with the secondary antibody takes place for 1 hour in 50 ml of incubation solution at room temperature in a humid chamber. […]
(§7) The cells are immersed in a drop of VectaShield (Vector), covered with an object-covering blade and observed on a fluorescence microscope (Leica DMR, Leica Microsystems), equipped with a coolSNAP (Princeton) camera system.

healthy cells = test: Immunohistochemistry: deformed nuclei / toxicity on healthy reference cells; type: cell-based, human; settings: Pravastatin 100 μM for 12 hours, zoledronate 20 μM for 6 hours; in combination or alone (FIG. 3)
Protocol: as §1, §2, §3, §4, §5, §6
Incubation with the secondary antibody takes place for 1 hour in 50 ml of incubation solution at room temperature in a humid chamber. The secondary antibodies are of two types: • Anti-mouse donkey, Jackson Immunoresearch, dilution to 1/100th • Anti-goat donkey, Jackson Immunoresearch, dilution to 1/200th […]
as §7

Row | Compound | level of prelamin A produced in treated healthy cells (prelamin A) | level of deformed nuclei (the sign of toxicity on the healthy cells) (healthy cells)
1 | (1-hydroxy-2-imidazol-1-yl-phosphono-ethyl)phosphonic acid [zoledronate] | 15% | –
2 | CC[C@H](C)C(=O)O[C@H]1C[C@H](O)C=C2C=C[C@H](C)[C@H](CC[C@@H](O)C[C@@H](O)CC(=O)O)[C@H]21 [pravastatin] | 25% | approximately 12%
